Results reported in patent US9951052B2, “Inhibitors of the renal outer medullary potassium channel” (Merck Sharp & Dohme Corp., priority 2013, dated 2018).
Where a name gives a salt, the structure may show the parent alone.

Molecular target: T1, hROMK (hKir1.1) (Homo sapiens, UniProt P48048)
T1 construct: expressed in transfected cells
T1 sequence (P48048 1-391): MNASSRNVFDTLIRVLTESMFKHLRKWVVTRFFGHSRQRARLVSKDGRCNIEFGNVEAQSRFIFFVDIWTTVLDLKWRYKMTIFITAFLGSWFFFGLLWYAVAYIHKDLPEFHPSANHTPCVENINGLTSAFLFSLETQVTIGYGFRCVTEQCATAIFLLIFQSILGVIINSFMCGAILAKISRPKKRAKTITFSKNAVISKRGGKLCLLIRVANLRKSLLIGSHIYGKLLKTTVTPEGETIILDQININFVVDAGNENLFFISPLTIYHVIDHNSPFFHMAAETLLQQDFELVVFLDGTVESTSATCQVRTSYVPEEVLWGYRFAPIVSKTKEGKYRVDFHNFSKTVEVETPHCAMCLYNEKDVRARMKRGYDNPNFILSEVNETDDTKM
Experiment: Thallium Flux Assay (ROMK channel functional thallium flux, FLIPR-Tetra)
Type: cell-based
Settings: HEK293 cells stably expressing hROMK (hKir1.1); 30 min incubation with compound; HCl salt run where final product was an HCl salt
Method: The following Thallium Flux Assay was performed on each of the final product compounds in the Examples. When the final product of an Example was an HCl salt, the salt was run in the Assay.
Cell Culture Conditions—HEK293 cells stably expressing hROMK (hKir1.1) were grown at 37° C. in a 10% CO2 humidified incubator in complete growth media: Dulbecco's Modified Eagle Medium supplemented with non-essential amino acids, Penicillin/Streptomycin/Glutamine, G418 and FBS. At >80% confluency, aspirate the media from the flask and rinse with 10 mL Calcium/Magnesium-free PBS. Add 5 mL of 1× trypsin (prepared in Ca/Mg Free PBS) to T-225 flask and return flask to 37° C./CO2 incubator for 2-3 minutes. To dislodge the cell, gently bang the side of the flask with your hand. Triturate the cells completely and then transfer the cells to 25 mL complete media. Centrifuge at 1,500 rpm for 6 min followed by resuspension in complete growth media and determine cell concentration. For typical re-seeding, 4E6 cells/T-225 flask will attain >80% confluency in 4 days. Under ideal growth conditions and appropriate tissue culture practices, this cell line is stable for 40-45 passages.
FluxOR Kit Components (Invitrogen F10017)
• FluxOR™ Reagent (Component A) • FluxOR™ Assay Buffer (Component B)—10× Concentrate • PowerLoad™ Concentrate (Component C)—100× Concentrate • Probenecid (Component D)—Lyophilized sample is kept at −20° C. Water soluble, 100× after solubilization in 1 mL water. Store at 4° C. • FluxOR™ Chloride-free Buffer (Component E)—5× Concentrate • Potassium sulfate (K2SO4) Concentrate (Component F)—125 mM in water. Store at 4° C. • Thallium sulfate (T12SO4) Concentrate (Component G)—50 mM in water. Store at 4° C. • DMSO (dimethyl sulfoxide, Component H)—1 mL (100%) Reagent Preparation: FluxOR Working Solutions • 1000× FluxOR™ Reagent: Reconstitute a vial of component A in 100 μl DMSO; Mix well; Store 10 μl aliquots at −20° C. • 1× FluxOR™ Assay Buffer: Dilute Component B 10-fold with water; Adjust pH to 7.4 with Hepes/NaOH; Filter and store at 4° C. • Probenecid/Assay Buffer: 100 mL of 1× FluxOR™ Assay Buffer; 1 mL of reconstituted component D; Store at 4° C. • Loading Buffer (per microplate): 10 μl 1000× FluxOR™ Reagent; 100 μl component C; 10 mL Probenecid/Assay Buffer • Compound Buffer (per microplate): 20 mL Probenecid/Assay Buffer; 0.3 mM ouabain (10 mM ouabain in water can be stored in amber bottle/aluminum foil at room temperature); Test compound • 1× FluxOR™ Chloride-Free Buffer: Prepare 1× working solution in water. Can be stored at room temperature • Stimulant Buffer (prepared at 5× final concentration in 1× FluxOR™ Chloride-Free Buffer): 7.5 mM Thallium sulfate and 0.75 mM Potassium sulfate (to give a final assay concentration of 3 mM Thallium/0.3 mM Potassium). Store at 4° C. when not in use.
Assay protocol—The ROMK channel functional thallium flux assay is performed in 384 wells, using the FLIPR-Tetra instrument. HEK-hKir1.1 cells are seeded in Poly-D-Lysine microplates and kept in a 37° C.-10% CO2 incubator overnight. On the day of the experiment, the growth media is replaced with the FluxOR™ reagent loading buffer and incubated, protected from light, at ambient temperature (23-25° C.) for 90 min. The loading buffer is replaced with assay buffer±test compound followed by 30 min incubation at ambient temperature, where the Thallium/Potassium stimulant is added to the microplate.
• 1. Seed HEK-hKir1.1 cells (50 μl at 20,000 cells/well) in 384-well PDL coated Microplates • 2. Allow cells to adhere overnight in humidified 37° C./10% CO2 incubator • 3. Completely remove cell growth media from microplate and replace with 25 μl loading buffer • 4. Incubate Microplate at room temperature, protected from light, for 90 min • 5. Remove loading buffer and replace with 25 μl 1× Assay Buffer±test compound. • 6. Incubate microplate at room temperature, protected from light, for 30 min • 7. […]

| IC50 [nM] | Structure (SMILES) |
| --- | --- |
| 250 | COc1nsc(N(C)C(=O)C2CCN(C[C@H](O)c3ccc4c(c3C)COC4=O)CC2)n1 [Example 45, (R)-1-(2-hydroxy-2-(4-methyl-1-oxo-1,3-dihydroisobenzofuran-5-yl)ethyl)-N-(3-methoxy-1,2,4-thiadiazol-5-yl)-N-methylpiperidine-4-carboxamide] |
| 50 | Cc1c([C@@H](O)CN2CCC(N)(C(=O)Nc3ccns3)CC2)ccc2c1COC2=O [Example 46, 4-amino-1-[(2R)-2-hydroxy-2-(4-methyl-1-oxo-1,3-dihydro-2-benzofuran-5-yl)ethyl]-N-(isothiazol-5-yl)piperidine-4-carboxamide hydrochloride] |
| 60 | Cc1c([C@@H](O)CN2CCC(F)(C(=O)Nc3ccns3)CC2)ccc2c1COC2=O [Example 47, 4-fluoro-1-[(2R)-2-hydroxy-2-(4-methyl-1-oxo-1,3-dihydro-2-benzofuran-5-yl)ethyl]-N-(isothiazol-5-yl)piperidine-4-carboxamide] |
| 40 | Cc1cc(NC(=O)C2(F)CCN(C[C@H](O)c3ccc4c(c3C)COC4=O)CC2)sn1 [Example 48, (R)-4-fluoro-1-(2-hydroxy-2-(4-methyl-1-oxo-1,3-dihydroisobenzofuran-5-yl)ethyl)-N-(3-methylisothiazol-5-yl)piperidine-4-carboxamide] |
| 200 | Cc1c([C@@H](O)CN2CCC(F)(C(=O)N3CCc4cnccc43)CC2)ccc2c1COC2=O [Example 49, (R)-5-(2-(4-(2,3-dihydro-1H-pyrrolo[3,2-c]pyridine-1-carbonyl)-4-fluoropiperidin-1-yl)-1-hydroxyethyl)-4-methylisobenzofuran-1(3H)-one] |
| 370 | Cc1c([C@@H](O)CN2CCC(F)(C(=O)Nc3cnsc3)CC2)ccc2c1COC2=O [Example 50, (R)-4-fluoro-1-(2-hydroxy-2-(4-methyl-1-oxo-1,3-dihydroisobenzofuran-5-yl)ethyl)-N-(isothiazol-4-yl)piperidine-4-carboxamide] |
| 220 | Cc1nc(NC(=O)C2(F)CCN(C[C@H](O)c3ccc4c(c3C)COC4=O)CC2)ccc1C#N [Example 51, (R)-N-(5-cyano-6-methylpyridin-2-yl)-4-fluoro-1-(2-hydroxy-2-(4-methyl-1-oxo-1,3-dihydroisobenzofuran-5-yl)ethyl)piperidine-4-carboxamide] |
| 260 | Cc1c([C@@H](O)CN2CCC(F)(C(=O)Nc3ccc(C#N)cn3)CC2)ccc2c1COC2=O [Example 52, (R)-N-(5-cyanopyridin-2-yl)-4-fluoro-1-(2-hydroxy-2-(4-methyl-1-oxo-1,3-dihydroisobenzofuran-5-yl)ethyl)piperidine-4-carboxamide] |
| 260 | Cc1c([C@@H](O)CN2CCC(F)(C(=O)Nc3cnns3)CC2)ccc2c1COC2=O [Example 53, (R)-4-fluoro-1-(2-hydroxy-2-(4-methyl-1-oxo-1,3-dihydroisobenzofuran-5-yl)ethyl)-N-(1,2,3-thiadiazol-5-yl)piperidine-4-carboxamide] |
| 160 | Cc1c([C@@H](O)CN2CC3C(C2)C3C(=O)Nc2ccns2)ccc2c1COC2=O (stereo partly drawn) [Example 54, 3-[(2R)-2-hydroxy-2-(4-methyl-1-oxo-1,3-dihydro-2-benzofuran-5-yl)ethyl]-N-(isothiazol-5-yl)-3-azabicyclo[3.1.0]hexane-6-carboxamide] |
| 60 | Cc1cc(NC(=O)C2C3CN(C[C@H](O)c4ccc5c(c4C)COC5=O)CC32)sn1 (stereo partly drawn) [Example 55, 3-((R)-2-hydroxy-2-(4-methyl-1-oxo-1,3-dihydroisobenzofuran-5-yl)ethyl)-N-(3-methylisothiazol-5-yl)-3-azabicyclo[3.1.0]hexane-6-carboxamide] |
| 350 | Cc1nsc(NC(=O)C2C3CN(C[C@H](O)c4ccc5c(c4C)COC5=O)CC32)n1 (stereo partly drawn) [Example 56, 3-((R)-2-hydroxy-2-(4-methyl-1-oxo-1,3-dihydroisobenzofuran-5-yl)ethyl)-N-(3-methyl-1,2,4-thiadiazol-5-yl)-3-azabicyclo[3.1.0]hexane-6-carboxamide] |
| 310 | COc1nsc(NC(=O)C2C3CN(C[C@H](O)c4ccc5c(c4C)COC5=O)CC32)n1 (stereo partly drawn) [Example 57, 3-((R)-2-hydroxy-2-(4-methyl-1-oxo-1,3-dihydroisobenzofuran-5-yl)ethyl)-N-(3-methoxy-1,2,4-thiadiazol-5-yl)-3-azabicyclo[3.1.0]hexane-6=carboxamide] |
| 280 | Cc1c([C@@H](O)CN2CC3C(C2)C3C(=O)Nc2cnsc2)ccc2c1COC2=O (stereo partly drawn) [Example 58, 3-((R)-2-hydroxy-2-(4-methyl-1-oxo-1,3-dihydroisobenzofuran-5-yl)ethyl)-N-(isothiazol-4-yl)-3-azabicyclo[3.1.0]hexane-6-carboxamide] |
| 400 | Cc1c([C@@H](O)CN2CC3C(C2)C3C(=O)Nc2ccc(C#N)cn2)ccc2c1COC2=O (stereo partly drawn) [Example 59, N-(5-cyanopyridin-2-yl)-3-((R)-2-hydroxy-2-(4-methyl-1-oxo-1,3-dihydroisobenzofuran-5-yl)ethyl)-3-azabicyclo[3.1.0]hexane-6-carboxamide] |
| 470 | Cc1c([C@@H](O)CN2CC3C(C2)C3C(=O)Nc2ccc(-n3cnnn3)cn2)ccc2c1COC2=O (stereo partly drawn) [Example 60, N-(5-(1H-tetrazol-1-yl)pyridin-2-yl)-3-((R)-2-hydroxy-2-(4-methyl-1-oxo-1,3-dihydroisobenzofuran-5-yl)ethyl)-3-azabicyclo[3.1.0]hexane-6-carboxamide] |
| 140 | Cc1c([C@@H](O)CN2CC3C(C2)C3C(=O)N(C)c2ccns2)ccc2c1COC2=O (stereo partly drawn) [Example 61, 3-((R)-2-hydroxy-2-(4-methyl-1-oxo-1,3-dihydroisobenzofuran-5-yl)ethyl)-N-(isothiazol-5-yl)-N-methyl-3-azabicyclo[3.1.0]hexane-6-carboxamide] |
| 170 | Cc1nsc(N(C)C(=O)C2C3CN(C[C@H](O)c4ccc5c(c4C)COC5=O)CC32)n1 (stereo partly drawn) [Example 62, 3-((R)-2-hydroxy-2-(4-methyl-1-oxo-1,3-dihydroisobenzofuran-5-yl)ethyl)-N-methyl-N-(3-methyl-1,2,4-thiadiazol-5-yl)-3-azabicyclo[3.1.0]hexane-6-carboxamide] |
